Tests used:
Type in all cases: in vivo
Viola tricolor = assay: Post-emergence herbicidal action, VIOTR; set-up: key: % herbicidal action vs untreated; 100 = plants died, 0 = like control
Summary of the method: (§1)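 One-leaf-stage weeds, raised from seed in greenhouse sandy loam, received a single foliar spray of compound as wettable powder or emulsion concentrate with 0.2% wetting agent added. Growth continued under optimal conditions for about 3 weeks before percent damage was scored by eye against controls.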

Matricaria inodora = assay: Pre-emergence herbicidal action, MATIN; set-up: key to Herbicidal action against MATIN: % activity: 100 = plants have died, 0 = like control plants; conditions: for herbicidal activity MATIN: scored visually after 3 weeks vs untreated controls (100% = plants have died)
Summary of the method: (§2)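 Greenhouse pre-emergence test: formulated compound (WP or EC) applied in water to the soil covering sown seeds, 600–800 l/ha, 0.2% wetting agent. Scored visually in percent at 3 weeks versus untreated plants.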

Veronica persica = assay: Pre-emergence herbicidal action, VERPE; conditions: dosage 320 g/ha; for herbicidal activity VERPE: scored visually after 3 weeks vs untreated controls (100% = plants have died)
Summary of the method: as §2

Hordeum murinum = assay: Pre-emergence herbicidal action, HORMU; conditions: dosage 320 g/ha; for herbicidal activity HORMU: scored visually after 3 weeks vs untreated controls (100% = plants have died)
Excerpt: (§3) 1. Pre-Emergence Herbicidal Action Against Harmful Plants Seeds of monocotyledonous and dicotyledonous weed plants and crop plants are laid out in sandy loam soil in wood-fiber pots and covered with soil. The compounds of the invention, formulated in the form of wettable powders (WP) or as emulsion concentrates (EC), are then applied to the surface of the covering soil in the form of an aqueous suspension or emulsion at a water application rate equating to 600 to 800 l/ha, with addition of 0.2% wetting agent. After the treatment, the pots are placed in a greenhouse and kept under good growth conditions for the trial plants. The damage to the test plants is scored visually after a test period of 3 weeks by comparison with untreated controls (herbicidal activity in percent (%): 100% activity=the plants have died, 0% activity=like control plants). […] The tables below illustrate, in an exemplary manner, the […] herbicidal action of the compounds according to the invention, the herbicidal activity being stated in percent. [table] In the experiments that follow, herbicidal action of numerous inventive compounds and the known compounds that are structurally closest from D1 (WO 2012/028579 A1) and D2 (WO 2018/202535 A1) were compared under the above-specified conditions by the pre-emergence and post-emergence method. The example numbers given in the tables relate to the compounds disclosed in the respective documents. In addition to the compounds disclosed in D1 and D2, the following compounds V-1 to V-14 that are encompassed by D1 or D2 but are not compounds specified therein were used in the comparative experiments: • V-1: 2-(methylsulfanyl)-3-(methylsulfinyl)-N-(1-methyl-1H-tetrazol-5-yl)-4-(trifluoromethyl)benzamide • V-2: 2-(methylsulfanyl)-3-(methylsulfonyl)-N-(1-methyl-1H-tetrazol-5-yl)-4-(trifluoromethyl)benzamide • V-3: 2,3-bis(ethylsulfanyl)-N-(1-methyl-1H-tetrazol-5-yl)-4-(trifluoromethyl)benzamide • V-4: 2-chloro-3-(ethylsulfanyl)-N-(1-methyl-1H-tetrazol-5-yl)-4-(trifluoromethyl)benzamide • V-5: 2-chloro-4-iodo-3-(methylsulfanyl)-N-(1-methyl-1H-tetrazol-5-yl)benzamide • V-6: 2-chloro-4-iodo-3-(methylsulfinyl)-N-(1-methyl-1H-tetrazol-5-yl)benzamide • V-7: 2-chloro-4-iodo-3-(methylsulfonyl)-N-(1-methyl-1H-tetrazol-5-yl)benzamide • V-8: 2-bromo-3-(methylsulfanyl)-N-(1-methyl-1H-tetrazol-5-yl)-4-(trifluoromethyl)benzamide • V-9: 2-bromo-3-(methylsulfinyl)-N-(1-methyl-1H-tetrazol-5-yl)-4-(trifluoromethyl)benzamide • V-10: 2-bromo-3-(methylsulfonyl)-N-(1-methyl-1H-tetrazol-5-yl)-4-(trifluoromethyl)benzamide • V-11: 2-bromo-3-(ethylsulfanyl)-N-(1-methyl-1H-tetrazol-5-yl)-4-(trifluoromethyl)benzamide • V-12: 2-bromo-3-(ethylsulfinyl)-N-(1-methyl-1H-tetrazol-5-yl)-4-(trifluoromethyl)benzamide • V-13: 2-bromo-3-(ethylsulfonyl)-N-(1-methyl-1-1H-tetrazol-5-yl)-4-(trifluoromethyl)benzamide • V-14: 2-cyclopropyl-3-(ethylsulfanyl)-N-(1-methyl-1H-tetrazol-5-yl)-4-(trifluoromethyl)benzamide Herbicidal Pre-Emergence Action: […]

Lolium rigidum = assay: Pre-emergence herbicidal action, LOLRI; conditions: dosage 320 g/ha, scored visually after 3 weeks vs untreated controls (100% = plants have died)
Excerpt: as §3

Lolium multiflorum = assay: Pre-emergence herbicidal action, LOLMU; conditions: dosage 320 g/ha, scored visually after 3 weeks vs untreated controls (100% = plants have died)
Excerpt: as §3

Cyperus esculentus = assay: Post-emergence herbicidal action, CYPES; set-up: key: % herbicidal action vs untreated; 100 = plants died, 0 = like control; conditions: post-emergence, dosage 80 g/ha
Summary of the method: as §1

Row | Compound | herbicidal action VIOTR (Viola tricolor; post-emergence, dosage 80 g/ha) [%] | herbicidal activity MATIN (Matricaria inodora; dosage 320 g/ha) [%] | herbicidal activity VERPE (Veronica persica) [%] | herbicidal activity HORMU (Hordeum murinum) [%] | herbicidal activity LOLRI (Lolium rigidum) [%] | Herbicidal action against MATIN (Matricaria inodora; comparative experiment, 20 g of a.i./ha) | herbicidal action VIOTR (Viola tricolor; Dosage 80 g/ha) | herbicidal action MATIN (Matricaria inodora; dosage 320 g/ha) [%] | herbicidal action VERPE (Veronica persica) [%] | herbicidal action HORMU (Hordeum murinum) [%] | herbicidal activity LOLMU (Lolium multiflorum) [%] | herbicidal action CYPES (Cyperus esculentus) [%]
1 | CC[S+]([O-])Cc1c(C(F)(F)F)ccc(C(=O)Nc2nnnn2C)c1Cl (racemic) [Example 1-300] | 100 | 100 | 100 | 100 | 100 |  |  |  |  |  |  | 
2 | Cn1nnnc1NC(=O)c1ccc(I)c(C[S+](C)[O-])c1Cl (racemic) [Example 1-363] | 100 | 100 | 100 | 100 | 100 | 90 |  |  |  |  |  | 
3 | COCC[S+]([O-])Cc1c(C(F)(F)F)ccc(C(=O)Nc2nnnn2C)c1Cl (racemic) [Example 1-306] |  | 100 | 90 | 90 | 90 |  | 100 |  |  |  |  | 
4 | CCn1nnnc1NC(=O)c1ccc(C(F)(F)F)c(C[S+]([O-])CC)c1Cl (centres unmarked) [Example 2-300] | 100 | 100 | 100 | 100 | 100 |  |  |  |  |  |  | 
5 | CCCn1nnnc1NC(=O)c1ccc(C(F)F)c(C[S+](C)[O-])c1SC (centres unmarked) [Example 3-171] |  | 100 | 100 | 90 |  |  | 100 |  |  |  |  | 
6 | Cn1nnnc1NC(=O)c1ccc(C(F)(F)F)c(C[S+]([O-])CC(F)(F)F)c1Cl (racemic) [Example 1-312] | 100 | 100 | 100 | 100 | 90 |  |  |  |  |  |  | 
7 | CCn1nnnc1NC(=O)c1ccc(C(F)F)c(CSC)c1SC [Example 2-170] |  | 100 | 100 | 80 |  |  | 100 |  |  |  |  | 
8 | CCn1nnnc1NC(=O)c1ccc(C(F)(F)F)c(CSCC(F)(F)F)c1Cl [Example 2-311] |  | 100 | 90 | 80 | 90 |  | 100 |  |  |  |  | 
9 | Cn1nnnc1NC(=O)c1ccc(C(F)(F)F)c(CS(C)(=O)=O)c1C(F)(F)C(F)(F)F [Example 1-552] |  | 100 | 100 | 80 |  |  | 90 |  |  |  |  | 
10 | CCCn1nnnc1NC(=O)c1ccc(I)c(C[S+](C)[O-])c1Cl (centres unmarked) [Example 3-363] |  |  |  |  |  |  | 100 | 100 | 90 | 100 |  | 
11 | CCn1nnnc1NC(=O)c1ccc(C(F)(F)F)c(C[S+](C)[O-])c1SC (centres unmarked) [Example 2-162] |  | 100 | 90 | 90 |  |  | 100 |  |  |  |  | 
12 | CCn1nnnc1NC(=O)c1ccc(I)c(C[S+](C)[O-])c1Cl (centres unmarked) [Example 2-363] |  | 100 | 100 | 100 | 100 |  | 100 |  |  |  |  | 
13 | CSc1c(C(=O)Nc2nnnn2C)ccc(C(F)F)c1C[S+](C)[O-] (centres unmarked) [Example 1-171] |  | 100 | 100 | 80 |  |  | 90 |  |  |  |  | 
14 | CCn1nnnc1NC(=O)c1ccc(C(F)(F)F)c(C[S+]([O-])CC2CC2)c1Cl (centres unmarked) [Example 2-315] |  | 100 | 100 | 100 | 90 |  | 100 |  |  |  |  | 
15 | CCCn1nnnc1NC(=O)c1ccc(C(F)(F)F)c(CS(C)(=O)=O)c1SC [Example 3-163] |  | 100 | 100 | 90 |  |  | 100 |  |  |  |  | 
16 | CCCn1nnnc1NC(=O)c1ccc(C(F)F)c(CS(C)(=O)=O)c1SC [Example 3-172] |  | 100 | 100 | 80 |  |  | 90 |  |  |  |  | 
17 | Cn1nnnc1NC(=O)c1ccc(C(F)(F)F)c(CS(=O)(=O)CC2CC2)c1Cl [Example 1-316] |  | 100 | 100 | 90 | 90 |  | 100 |  |  |  |  | 
18 | CCn1nnnc1NC(=O)c1ccc(C(F)F)c(C[S+]([O-])CC)c1Cl (centres unmarked) [Example 2-324] | 100 | 100 | 100 | 100 | 90 |  |  |  |  |  |  | 
19 | CCn1nnnc1NC(=O)c1ccc(C(F)(F)F)c(CSC)c1Cl [Example 2-296] | 100 | 100 | 100 |  |  |  |  |  |  |  | 100 | 80
20 | CCSCc1c(C(F)(F)F)ccc(C(=O)Nc2nnnn2CC)c1Cl [Example 2-299] | 100 | 100 | 100 |  |  |  |  |  |  |  | 100 | 90
21 | CCCn1nnnc1NC(=O)c1ccc(C(F)(F)F)c(C[S+](C)[O-])c1SC (centres unmarked) [Example 3-162] | 100 | 100 | 100 | 100 | 90 |  |  |  |  |  |  | 

Reference: patent US12492173B2, “Herbicidal substituted N-tetrazolyl aryl carboxamides” (Bayer Aktiengesellschaft, priority 2019, dated 2025)
